Laboratory results: patent US6444617B1, “Fused-heterocycle dicarboxylic acid diamide derivatives or salts thereof, herbicide and usage thereof” (Nihon Nohyaku Co., Ltd., priority 1998, dated 2002)

Experiments:
Format in all cases: in vivo
[1] = tested on: barnyard grass (Echinochloa crus-galli Beauv.); assay: Test Example 1: herbicidal effect on paddy field weeds before emergence; settings: Dosage 5 kg/ha
Method in brief: (§1)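 Grading reflects percent control relative to untreated plots, evaluated three weeks post-application. Treatment was a soil application of compound solution, predetermined dose, made to paddy-state pots before weed seeds germinated.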

[2] = tested on: bulrush (Scirpus juncoides Roxb.); assay: as above; settings: Dosage 5 kg/ha
Method in brief: as §1

[3] = tested on: barnyard grass (Echinochloa crus-galli Beauv.); assay: Test Example 2: herbicidal effect on paddy field weeds after emergence; settings: Dosage 5 kg/ha; one-leaved stage; 21 days after treatment
Method in brief: (§2)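 Weeds in flooded paddy-soil pots were grown to the one-leaved stage, then the soil was treated with the compound solution at a set dosage.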

[4] = tested on: bulrush (Scirpus juncoides Roxb.); assay: as above; settings: Dosage 5 kg/ha; one-leaved stage; 21 days after treatment
Method in brief: as §2

[5] = tested on: monochoria (Monochoria vaginalis Presl); assay: as above; settings: Dosage 5 kg/ha; one-leaved stage; 21 days after treatment
Method in brief: as §2

[6] = tested on: barnyard grass (Echinochloa crus-galli Beauv.), Ec; assay: Test Example 3: herbicidal effect on upland weeds before emergence; settings: dosage 5 kg/ha
Method in brief: (§3)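 Herbicidal activity was rated from kill rate determined 14 days post-spray, the compound having been applied pre-emergence as a liquid agent.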

[7] = tested on: bird's eye speedwell (Veronica persica Poir.), Vp; assay: as above; settings: dosage 5 kg/ha
Method in brief: as §3

[8] = tested on: cleavers (Galium aparine L.), Ga; assay: as above; settings: dosage 5 kg/ha
Method in brief: as §3

[9] = tested on: cocklebur (Xanthium strumarium L.), Xs; assay: as above; settings: dosage 5 kg/ha
Method in brief: as §3

[10] = tested on: forxtail grass (Alopecurus aequalis var. amurensis Ohwi), Am; assay: as above; settings: foxtail grass, dosage 5 kg/ha
Method in brief: as §3

[11] = tested on: velvetleaf (Abutilon theophtasti L.), At; assay: as above; settings: dosage 5 kg/ha
Method in brief: as §3

soybean plant (So) = assay: Test Example 3: phytotoxicity to upland crop plants, treatment before emergence; settings: dosage 5 kg/ha
Method in brief: (§4)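 Phytotoxicity scores for soybean and wheat were assigned by a set criterion 14 days after a pre-emergence spray of a liquid preparation containing the test compound at a prescribed concentration.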

wheat (Wh) = assay: as above; settings: dosage 5 kg/ha
Method in brief: as §4

[12] = tested on: barnyard grass (Echinochloa crus-galli Beauv.), Ec; assay: Test Example 4: herbicidal effect on upland weeds after emergence; settings: dosage 5 kg/ha; sprayed after emergence; judged 14 days after treatment
Method in brief: (§5)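 Seeds sown in soil and covered. Plants raised to specified leaf stages. Agent with test compound at a prescribed concentration sprayed. Herbicidal effect and crop damage scored after 14 days as weed-killing rate.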

[13] = tested on: bird's eye speedwell (Veronica persica Poir.), Vp; assay: as above; settings: dosage 5 kg/ha; sprayed after emergence; judged 14 days after treatment
Method in brief: as §5

[14] = tested on: cleavers (Galium aparine L.), Ga; assay: as above; settings: dosage 5 kg/ha; sprayed after emergence; judged 14 days after treatment
Method in brief: as §5

[15] = tested on: cocklebur (Xanthium strumarium L.), Xs; assay: as above; settings: dosage 5 kg/ha; sprayed after emergence; judged 14 days after treatment
Method in brief: as §5

[16] = tested on: forxtail grass (Alopecurus aequalis var. amurensis Ohwi), Am; assay: as above; settings: dosage 5 kg/ha; sprayed after emergence; judged 14 days after treatment
Method in brief: as §5

[17] = tested on: velvetleaf (Abutilon theophtasti L.), At; assay: as above; settings: dosage 5 kg/ha; sprayed after emergence; judged 14 days after treatment
Method in brief: as §5

soybean plant = assay: Test Example 4: phytotoxicity to upland crop plants, treatment after emergence; settings: dosage 5 kg/ha, sprayed after emergence, judged 14 days after treatment
Method in brief: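 Weeds and soybean grown in soil-filled vats to set leaf stages, then sprayed post-emergence with the compound at a prescribed concentration. Weed-killing rate and crop phytotoxicity judged 14 days after treatment.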

wheat = assay: as above; settings: dosage 5 kg/ha, sprayed after emergence, judged 14 days after treatment
Method in brief: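 Upland weeds and crop plants (soybean, wheat) are grown from seed in soil until they reach given leaf stages, then treated by spraying with the compound-containing agent; effects are judged two weeks later.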

CCc1ccc(Cl)c(CC)c1NC(=O)c1cc2cc(OC)c(OC)cc2nc1C(=O)NCC(C)C [compound 310]
Pre-emergence treatment Barnyard grass (herbicidal effect) [1]: 4 (Weed-killing rate is 90-99%.)
Pre-emergence treatment Bulrush (herbicidal effect) [2]: 3 (Weed-killing rate is 70-89%.)
Post-emergence treatment Barnyard grass (herbicidal effect) [3]: 3 (Weed-killing rate is 70-89%.)
Post-emergence treatment Bulrush (herbicidal effect) [4]: 2 (Weed-killing rate is 40-69%.)
Post-emergence treatment Monochoria (herbicidal effect) [5]: 5 (Weed-killing rate is 100%.)
Herbicidal effect Ec [6]: 4 (Weed-killing rate is 90-99%.)
Herbicidal effect Vp [7]: 4 (Weed-killing rate is 90-99%.)
Herbicidal effect Ga [8]: 3 (Weed-killing rate is 70-89%.)
Herbicidal effect Xs [9]: 3 (Weed-killing rate is 70-89%.)
Herbicidal effect Am [10]: 4 (Weed-killing rate is 90-99%.)
Herbicidal effect At [11]: 4 (Weed-killing rate is 90-99%.)
Phytotoxicity So (soybean plant (So)): 0 (Crop-killing rate is 0-20% (No Phytotoxicity).)
Phytotoxicity Wh (wheat (Wh)): 2 (Crop-killing rate is 40-69%.)
Herbicidal effect Ec [12]: 4 (Weed-killing rate is 90-99%.)
Herbicidal effect Vp [13]: 3 (Weed-killing rate is 70-89%.)
Herbicidal effect Ga [14]: 2 (Weed-killing rate is 40-69%.)
Herbicidal effect Xs [15]: 3 (Weed-killing rate is 70-89%.)
Herbicidal effect Am [16]: 3 (Weed-killing rate is 70-89%.)
Herbicidal effect At [17]: 4 (Weed-killing rate is 90-99%.)
Phytotoxicity So (soybean plant): 0 (Crop-killing rate is 0-20% (No Phytotoxicity).)
Phytotoxicity Wh (wheat): 2 (Crop-killing rate is 40-69%.)

CCc1ccc(Cl)c(CC)c1NC(=O)c1nc2ccccc2nc1C(=O)NC1CCCC1 [compound 1315]
Pre-emergence treatment Barnyard grass (herbicidal effect) [1]: 5 (Weed-killing rate is 100%.)
Pre-emergence treatment Bulrush (herbicidal effect) [2]: 5 (Weed-killing rate is 100%.)
Post-emergence treatment Barnyard grass (herbicidal effect) [3]: 5 (Weed-killing rate is 100%.)
Post-emergence treatment Bulrush (herbicidal effect) [4]: 5 (Weed-killing rate is 100%.)
Post-emergence treatment Monochoria (herbicidal effect) [5]: 5 (Weed-killing rate is 100%.)
Herbicidal effect Ec [6]: 5 (Weed-killing rate is 100%.)
Herbicidal effect Vp [7]: 5 (Weed-killing rate is 100%.)
Herbicidal effect Ga [8]: 5 (Weed-killing rate is 100%.)
Herbicidal effect Xs [9]: 5 (Weed-killing rate is 100%.)
Herbicidal effect Am [10]: 5 (Weed-killing rate is 100%.)
Herbicidal effect At [11]: 5 (Weed-killing rate is 100%.)
Phytotoxicity So (soybean plant (So)): 5 (Crop-killing rate is 100%.)
Phytotoxicity Wh (wheat (Wh)): 5 (Crop-killing rate is 100%.)
Herbicidal effect Ec [12]: 5 (Weed-killing rate is 100%.)
Herbicidal effect Vp [13]: 5 (Weed-killing rate is 100%.)
Herbicidal effect Ga [14]: 5 (Weed-killing rate is 100%.)
Herbicidal effect Xs [15]: 5 (Weed-killing rate is 100%.)
Herbicidal effect Am [16]: 5 (Weed-killing rate is 100%.)
Herbicidal effect At [17]: 5 (Weed-killing rate is 100%.)
Phytotoxicity So (soybean plant): 5 (Crop-killing rate is 100%.)
Phytotoxicity Wh (wheat): 5 (Crop-killing rate is 100%.)

CCCNC(=O)c1nc2ccccc2nc1C(=O)Nc1c(CC)ccc(Cl)c1CC [compound 1306]
Pre-emergence treatment Barnyard grass (herbicidal effect) [1]: 5 (Weed-killing rate is 100%.)
Pre-emergence treatment Bulrush (herbicidal effect) [2]: 5 (Weed-killing rate is 100%.)
Post-emergence treatment Barnyard grass (herbicidal effect) [3]: 5 (Weed-killing rate is 100%.)
Post-emergence treatment Bulrush (herbicidal effect) [4]: 5 (Weed-killing rate is 100%.)
Post-emergence treatment Monochoria (herbicidal effect) [5]: 5 (Weed-killing rate is 100%.)
Herbicidal effect Ec [6]: 5 (Weed-killing rate is 100%.)
Herbicidal effect Vp [7]: 5 (Weed-killing rate is 100%.)
Herbicidal effect Ga [8]: 5 (Weed-killing rate is 100%.)
Herbicidal effect Xs [9]: 5 (Weed-killing rate is 100%.)
Herbicidal effect Am [10]: 5 (Weed-killing rate is 100%.)
Herbicidal effect At [11]: 5 (Weed-killing rate is 100%.)
Phytotoxicity So (soybean plant (So)): 5 (Crop-killing rate is 100%.)
Phytotoxicity Wh (wheat (Wh)): 5 (Crop-killing rate is 100%.)
Herbicidal effect Ec [12]: 5 (Weed-killing rate is 100%.)
Herbicidal effect Vp [13]: 5 (Weed-killing rate is 100%.)
Herbicidal effect Ga [14]: 5 (Weed-killing rate is 100%.)
Herbicidal effect Xs [15]: 5 (Weed-killing rate is 100%.)
Herbicidal effect Am [16]: 5 (Weed-killing rate is 100%.)
Herbicidal effect At [17]: 5 (Weed-killing rate is 100%.)
Phytotoxicity So (soybean plant): 5 (Crop-killing rate is 100%.)
Phytotoxicity Wh (wheat): 5 (Crop-killing rate is 100%.)

CCNC(=O)c1nc2c(cnn2C)cc1C(=O)Nc1c(CC)ccc(Cl)c1CC [compound 1087]
Pre-emergence treatment Barnyard grass (herbicidal effect) [1]: 5 (Weed-killing rate is 100%.)
Pre-emergence treatment Bulrush (herbicidal effect) [2]: 5 (Weed-killing rate is 100%.)
Post-emergence treatment Barnyard grass (herbicidal effect) [3]: 5 (Weed-killing rate is 100%.)
Post-emergence treatment Bulrush (herbicidal effect) [4]: 5 (Weed-killing rate is 100%.)
Post-emergence treatment Monochoria (herbicidal effect) [5]: 5 (Weed-killing rate is 100%.)
Herbicidal effect Ec [6]: 5 (Weed-killing rate is 100%.)
Herbicidal effect Vp [7]: 5 (Weed-killing rate is 100%.)
Herbicidal effect Ga [8]: 5 (Weed-killing rate is 100%.)
Herbicidal effect Xs [9]: 5 (Weed-killing rate is 100%.)
Herbicidal effect Am [10]: 5 (Weed-killing rate is 100%.)
Herbicidal effect At [11]: 5 (Weed-killing rate is 100%.)
Phytotoxicity So (soybean plant (So)): 5 (Crop-killing rate is 100%.)
Phytotoxicity Wh (wheat (Wh)): 5 (Crop-killing rate is 100%.)
Herbicidal effect Ec [12]: 5 (Weed-killing rate is 100%.)
Herbicidal effect Vp [13]: 5 (Weed-killing rate is 100%.)
Herbicidal effect Ga [14]: 5 (Weed-killing rate is 100%.)
Herbicidal effect Xs [15]: 5 (Weed-killing rate is 100%.)
Herbicidal effect Am [16]: 5 (Weed-killing rate is 100%.)
Herbicidal effect At [17]: 5 (Weed-killing rate is 100%.)
Phytotoxicity So (soybean plant): 4 (Crop-killing rate is 90-99%.)
Phytotoxicity Wh (wheat): 5 (Crop-killing rate is 100%.)

CCCNC(=O)c1nc2nn(C)cc2cc1C(=O)Nc1c(CC)ccc(Cl)c1CC [compound 1124]
Pre-emergence treatment Barnyard grass (herbicidal effect) [1]: 5 (Weed-killing rate is 100%.)
Pre-emergence treatment Bulrush (herbicidal effect) [2]: 5 (Weed-killing rate is 100%.)
Post-emergence treatment Barnyard grass (herbicidal effect) [3]: 5 (Weed-killing rate is 100%.)
Post-emergence treatment Bulrush (herbicidal effect) [4]: 5 (Weed-killing rate is 100%.)
Post-emergence treatment Monochoria (herbicidal effect) [5]: 5 (Weed-killing rate is 100%.)
Herbicidal effect Ec [6]: 5 (Weed-killing rate is 100%.)
Herbicidal effect Vp [7]: 5 (Weed-killing rate is 100%.)
Herbicidal effect Ga [8]: 5 (Weed-killing rate is 100%.)
Herbicidal effect Xs [9]: 5 (Weed-killing rate is 100%.)
Herbicidal effect Am [10]: 5 (Weed-killing rate is 100%.)
Herbicidal effect At [11]: 5 (Weed-killing rate is 100%.)
Phytotoxicity So (soybean plant (So)): 5 (Crop-killing rate is 100%.)
Phytotoxicity Wh (wheat (Wh)): 5 (Crop-killing rate is 100%.)
Herbicidal effect Ec [12]: 5 (Weed-killing rate is 100%.)
Herbicidal effect Vp [13]: 5 (Weed-killing rate is 100%.)
Herbicidal effect Ga [14]: 5 (Weed-killing rate is 100%.)
Herbicidal effect Xs [15]: 5 (Weed-killing rate is 100%.)
Herbicidal effect Am [16]: 5 (Weed-killing rate is 100%.)
Herbicidal effect At [17]: 5 (Weed-killing rate is 100%.)
Phytotoxicity So (soybean plant): 5 (Crop-killing rate is 100%.)
Phytotoxicity Wh (wheat): 5 (Crop-killing rate is 100%.)
